Results: ChEMBL document CHEMBL5113441, “Exploration of 4-(1H-indol-3-yl)cyclohex-3-en-1-amine analogues as HDAC inhibitors: Design, synthesis, biological evaluation and modelling studies” (Bioorg Med Chem Lett, 2022)
The source made the active and inactive calls. The calls are words filed in the database; no cut-off is given here.

Assays:
[1] = molecular target: Histone deacetylase 1 (Homo sapiens, UniProt Q13547); assay: Inhibition of HDAC1 (unknown origin)
[2] = molecular target: T1, Histone deacetylase 8 (Homo sapiens, UniProt Q9BY41); assay: Inhibition of HDAC8 (unknown origin)
T1 sequence (Q9BY41 whole entry): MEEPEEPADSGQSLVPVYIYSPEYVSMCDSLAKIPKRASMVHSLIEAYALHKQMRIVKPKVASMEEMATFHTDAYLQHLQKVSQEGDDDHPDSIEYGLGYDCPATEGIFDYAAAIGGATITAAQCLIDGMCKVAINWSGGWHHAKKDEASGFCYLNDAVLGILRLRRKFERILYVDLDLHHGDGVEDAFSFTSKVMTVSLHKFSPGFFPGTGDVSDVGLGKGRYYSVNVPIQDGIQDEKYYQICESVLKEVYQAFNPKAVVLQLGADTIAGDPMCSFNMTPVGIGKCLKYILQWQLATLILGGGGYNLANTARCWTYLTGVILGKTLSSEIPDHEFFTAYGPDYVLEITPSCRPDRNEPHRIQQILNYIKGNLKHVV

[3] = system: MCF7; assay: Antiproliferative activity against human MCF7 cells measured after 72 hrs; format: functional, cell-based; settings: MCF7, 72 h
[4] = molecular target: T2, Protein deacetylase HDAC6 (Homo sapiens, UniProt Q9UBN7); assay: Inhibition of HDAC6 (unknown origin)
T2 sequence (Q9UBN7 whole entry): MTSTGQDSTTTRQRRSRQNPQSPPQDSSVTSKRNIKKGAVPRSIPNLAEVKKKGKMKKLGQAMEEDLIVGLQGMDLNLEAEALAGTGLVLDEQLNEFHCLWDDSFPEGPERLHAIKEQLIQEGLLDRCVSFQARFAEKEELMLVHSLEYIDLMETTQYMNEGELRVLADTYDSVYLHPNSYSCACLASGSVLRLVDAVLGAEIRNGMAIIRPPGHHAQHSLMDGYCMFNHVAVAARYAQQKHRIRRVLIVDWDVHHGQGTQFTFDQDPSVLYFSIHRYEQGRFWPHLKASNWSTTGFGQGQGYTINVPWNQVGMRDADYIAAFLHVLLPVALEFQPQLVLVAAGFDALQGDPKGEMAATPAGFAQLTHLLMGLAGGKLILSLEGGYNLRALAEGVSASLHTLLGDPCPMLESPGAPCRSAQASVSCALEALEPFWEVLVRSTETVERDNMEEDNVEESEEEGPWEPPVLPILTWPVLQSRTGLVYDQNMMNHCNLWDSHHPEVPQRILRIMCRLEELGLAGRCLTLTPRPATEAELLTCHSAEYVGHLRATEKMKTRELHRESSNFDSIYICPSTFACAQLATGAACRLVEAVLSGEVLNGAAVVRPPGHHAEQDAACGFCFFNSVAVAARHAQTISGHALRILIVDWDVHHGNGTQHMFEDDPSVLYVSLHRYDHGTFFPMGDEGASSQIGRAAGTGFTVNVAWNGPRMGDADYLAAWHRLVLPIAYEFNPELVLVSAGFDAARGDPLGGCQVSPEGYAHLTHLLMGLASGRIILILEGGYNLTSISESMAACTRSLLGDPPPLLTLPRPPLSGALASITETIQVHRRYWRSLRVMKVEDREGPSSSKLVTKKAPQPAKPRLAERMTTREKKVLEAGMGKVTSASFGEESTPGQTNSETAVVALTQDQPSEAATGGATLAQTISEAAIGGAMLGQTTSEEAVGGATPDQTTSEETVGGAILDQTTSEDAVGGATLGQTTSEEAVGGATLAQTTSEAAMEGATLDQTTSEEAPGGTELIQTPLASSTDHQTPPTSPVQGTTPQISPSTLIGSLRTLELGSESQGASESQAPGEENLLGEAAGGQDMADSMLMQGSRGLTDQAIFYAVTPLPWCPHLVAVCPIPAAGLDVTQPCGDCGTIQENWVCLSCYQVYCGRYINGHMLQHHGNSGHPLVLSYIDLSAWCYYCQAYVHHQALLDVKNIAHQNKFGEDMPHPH

[5] = system: HCT-116; assay: Antiproliferative activity against human HCT-116 cells measured after 72 hrs; format: functional, cell-based; settings: HCT-116, 72 h
[6] = molecular target: Histone deacetylase 2 (Homo sapiens, UniProt Q92769); assay: Inhibition of HDAC2 (unknown origin)
[7] = Cytotoxicity against human L02 cells measured after 72 hrs
[8] = molecular target: Histone deacetylase 3 (Homo sapiens, UniProt O15379); assay: Inhibition of HDAC3 (unknown origin)
[9] = system: SW480; assay: Antiproliferative activity against human SW480 cells measured after 72 hrs; format: functional, cell-based; settings: SW480, 72 h
[10] = system: A549; assay: Antiproliferative activity against human A549 cells measured after 72 hrs; format: functional, cell-based; settings: A549, 72 h
[11] = system: HCT-116; assay: Induction of apoptosis in human HCT-116 cells assessed as appearance of smaller nuclei measured after 48 hrs by Hoechst 33342 staining based assay; format: functional, cell-based; settings: dose 50-200 nM, DDE = dose-dependent effect
[12] = system: HCT-116; assay: Antimigratory activity against human HCT-116 cells at 25 nM measured after 48 hrs by wound healing assay; format: functional, cell-based
[13] = system: HCT-116; assay: Induction of apoptosis in human HCT-116 cells assessed as chromatin condensation measured after 48 hrs by Hoechst 33342 staining based assay; format: functional, cell-based; settings: dose 50-200 nM, DDE = dose-dependent effect
[14] = species on record: Homo sapiens; assay: Selectivity ratio of IC50 for HDAC6 (unknown origin) to IC50 for HDAC2 (unknown origin)
[15] = system: HCT-116; assay: Cell cycle arrest in human HCT-116 cells assessed as increase in accumulation at G2/M phase measured after 48 hrs by propidium iodide staining based flow cytometry; format: functional; settings: dose 50-200 nM, DDE = dose-dependent effect
[16] = molecular target: T3, Histone deacetylase 1/2/3 (Homo sapiens) (UniProt Q13547+O15379+Q92769); assay: Inhibition of HDAC1/HDAC2/HDAC3 in human HCT-116 cells assessed as increase in accumulation of acetylated histone H3 measured after 48 hrs by Western blot analysis; format: cell-based; settings: dose 200-800 nM, DDE = dose-dependent effect
[17] = species on record: Homo sapiens; assay: Selectivity ratio of IC50 for HDAC6 (unknown origin) to IC50 for HDAC1 (unknown origin)
[18] = system: HCT-116; assay: Induction of apoptosis in human HCT-116 cells assessed as apoptotic cells at 200 nM measured after 48 hrs by Annexin-FITC/propidium iodide staining based flow cytometry relative to control; format: functional
[19] = Selectivity index, ratio of IC50 for human L02 cells to IC50 for human A549 cells; format: toxicity; settings: L02 cells and A549 cells, read-out: Ratio IC50
[20] = molecular target: T3, Histone deacetylase 1/2/3 (Homo sapiens); assay: Inhibition of HDAC1/HDAC2/HDAC3 in human HCT-116 cells assessed as increase in accumulation of acetylated histone H4 measured after 48 hrs by Western blot analysis; format: cell-based; settings: dose 200-800 nM, DDE = dose-dependent effect
[21] = system: HCT-116; assay: Induction of apoptosis in human HCT-116 cells assessed as apoptotic cells at 100 nM measured after 48 hrs by Annexin-FITC/propidium iodide staining based flow cytometry relative to control; format: functional
[22] = system: HCT-116; assay: Induction of apoptosis in human HCT-116 cells measured after 48 hrs by Annexin-FITC/propidium iodide staining based flow cytometry; format: functional, cell-based; settings: dose 50-200 nM, DDE = dose-dependent effect
[23] = species on record: Homo sapiens; assay: Selectivity ratio of IC50 for HDAC6 (unknown origin) to IC50 for HDAC3 (unknown origin)
[24] = system: HCT-116; assay: Inhibition of colony formation in human HCT-116 cells; format: functional, cell-based; settings: dose 50-200 nM, DDE = dose-dependent effect

Sequence of Histone deacetylase 1 (Q13547 whole entry): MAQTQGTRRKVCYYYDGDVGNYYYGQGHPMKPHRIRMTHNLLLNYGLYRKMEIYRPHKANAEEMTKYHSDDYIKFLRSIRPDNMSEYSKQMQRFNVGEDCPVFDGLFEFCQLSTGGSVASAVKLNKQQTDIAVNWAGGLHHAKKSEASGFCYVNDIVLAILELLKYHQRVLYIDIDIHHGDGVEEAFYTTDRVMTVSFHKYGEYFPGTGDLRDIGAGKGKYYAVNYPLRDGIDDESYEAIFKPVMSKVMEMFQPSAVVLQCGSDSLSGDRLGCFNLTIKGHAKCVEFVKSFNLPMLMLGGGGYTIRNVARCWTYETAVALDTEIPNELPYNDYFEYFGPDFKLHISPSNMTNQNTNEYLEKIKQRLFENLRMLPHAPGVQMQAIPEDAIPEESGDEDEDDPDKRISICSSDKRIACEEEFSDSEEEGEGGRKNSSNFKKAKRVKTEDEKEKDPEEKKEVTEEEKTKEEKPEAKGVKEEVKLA
Sequence of Histone deacetylase 2 (Q92769 whole entry): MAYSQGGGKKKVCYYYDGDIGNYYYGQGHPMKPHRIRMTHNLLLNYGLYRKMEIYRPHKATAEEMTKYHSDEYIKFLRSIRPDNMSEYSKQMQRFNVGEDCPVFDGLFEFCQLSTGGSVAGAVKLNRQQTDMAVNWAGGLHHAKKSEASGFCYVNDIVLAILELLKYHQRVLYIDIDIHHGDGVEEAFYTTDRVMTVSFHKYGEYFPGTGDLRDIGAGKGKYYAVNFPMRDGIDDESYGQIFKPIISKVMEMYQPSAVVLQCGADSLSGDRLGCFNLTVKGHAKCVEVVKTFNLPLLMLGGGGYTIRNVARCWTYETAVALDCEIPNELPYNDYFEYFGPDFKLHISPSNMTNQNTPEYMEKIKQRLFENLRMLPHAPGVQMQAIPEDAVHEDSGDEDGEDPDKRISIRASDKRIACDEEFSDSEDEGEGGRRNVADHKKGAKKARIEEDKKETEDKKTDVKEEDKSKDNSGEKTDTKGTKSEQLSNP
Sequence of Histone deacetylase 3 (O15379 whole entry): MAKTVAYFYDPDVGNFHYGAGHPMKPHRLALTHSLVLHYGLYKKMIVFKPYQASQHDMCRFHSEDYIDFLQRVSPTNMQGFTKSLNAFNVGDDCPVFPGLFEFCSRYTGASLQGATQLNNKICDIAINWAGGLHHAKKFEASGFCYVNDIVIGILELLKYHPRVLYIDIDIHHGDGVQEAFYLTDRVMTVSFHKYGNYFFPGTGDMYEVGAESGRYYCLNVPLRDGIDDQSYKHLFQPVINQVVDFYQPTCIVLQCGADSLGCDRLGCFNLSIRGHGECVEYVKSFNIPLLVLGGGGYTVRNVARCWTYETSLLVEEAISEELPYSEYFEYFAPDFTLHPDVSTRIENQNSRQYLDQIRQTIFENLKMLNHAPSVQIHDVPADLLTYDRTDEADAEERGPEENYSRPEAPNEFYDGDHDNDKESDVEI

O=C(COc1ccc(CNCCc2c[nH]c3ccccc23)c(F)c1)NO
IC50 [1]: 2.1 nM
IC50 [2]: 90 nM
IC50 [3]: 77 nM
IC50 [4]: 14 nM
IC50 [5]: 46 nM
IC50 [6]: 3.1 nM
IC50 at 72 h [7]: 1560 nM
IC50 [8]: 6.3 nM

O=C(COc1ccc(CNCCc2c[nH]c3ccccc23)cc1F)NO
IC50 [3]: 155 nM
IC50 [5]: 162 nM

Cc1[nH]c2ccccc2c1C1=CCN(Cc2ccc(OCC(=O)NO)cc2F)CC1
IC50 [5]: 1220 nM
IC50 [9]: 1600 nM

O=C(COc1ccc(C(=O)N2CC=C(c3c[nH]c4cccc(F)c34)CC2)cc1)NO
IC50 [5]: 1410 nM
IC50 [9]: 1490 nM

O=C(COc1ccc(CN2CC=C(c3c[nH]c4ccc(F)cc34)CC2)c(F)c1)NO
IC50 [5]: > 5000 nM
IC50 [9]: 3860 nM

Cc1[nH]c2ccccc2c1C1=CCC(NCc2ccc(OCC(=O)NO)cc2F)C(F)C1 (centres undefined)
IC50 [10]: 501 nM
IC50 [3]: 2310 nM
IC50 [5]: 733 nM
IC50 [9]: 509 nM

O=C(COc1cccc(CNCCc2c[nH]c3ccccc23)c1)NO
IC50 [3]: 2330 nM
IC50 [5]: 2610 nM

Cc1ccc2[nH]cc(C3=CCC(NCc4ccc(OCC(=O)NO)cc4F)CC3)c2c1 (centres undefined)
IC50 [5]: 445 nM
IC50 [9]: 2780 nM

O=C(COc1ccc(C(=O)NC2CC=C(c3c[nH]c4cccc(F)c34)CC2)cc1)NO (centres undefined)
IC50 [5]: > 5000 nM
IC50 [9]: > 5000 nM

O=C(COc1ccc(CNCCn2cnc3ccccc32)c(F)c1)NO
IC50 [3]: 539 nM
IC50 [5]: 410 nM

Cc1[nH]c2ccccc2c1C1=CCC(NCc2ccc(OCC(=O)NO)cc2F)CC1 (centres undefined)
IC50 [1]: 1.6 nM
Activity [11]: Dde
IC50 [2]: 86 nM
Activity [12]: Active
Activity [13]: Dde
Ratio IC50 [14]: 3
Activity [15]: Dde
inhibition [16]: Dde
Ratio IC50 [17]: 3
Activity [18]: 91.5%
selectivity ratio [19]: 20
IC50 [10]: 130 nM
inhibition [20]: Dde
Activity [21]: 81.8%
IC50 [3]: 912 nM
IC50 [4]: 13 nM
Activity [22]: Dde
IC50 [5]: 99 nM
IC50 [6]: 1.9 nM
IC50 [9]: 170 nM
IC50 at 72 h [7]: 2300 nM
IC50 [8]: 3.8 nM
Ratio IC50 [23]: 3
inhibition [24]: Dde

O=C(COc1ccc(CNC2CC=C(c3c[nH]c4ccc(F)cc34)CC2)c(F)c1)NO (centres undefined)
IC50 [10]: 304 nM
IC50 [3]: 1420 nM
IC50 [5]: 261 nM
IC50 [9]: 179 nM

COc1cc(OCC(=O)NO)ccc1CNCCn1cnc2ccccc21
IC50 [3]: > 10000 nM
IC50 [5]: > 10000 nM

Cc1[nH]c2ccccc2c1C1=CCN(Cc2ccc(OCC(=O)NO)cc2)CC1
IC50 [10]: 615 nM
IC50 [3]: 1590 nM
IC50 [5]: 301 nM
IC50 [9]: 697 nM

O=C(COc1ccc(CN2CC=C(c3c[nH]c4cccc(F)c34)CC2)c(F)c1)NO
IC50 [5]: 1220 nM
IC50 [9]: 5560 nM
